Results from ChEMBL document CHEMBL6103570, “An endoplasmic reticulum and lipid droplets dual-localized strategy to develop small molecular photosensitizers that induce ferroptosis during photodynamic therapy” (Eur J Med Chem, 2025).
Calls of active or inactive are those of the source. The rule behind the calls is not given here.

How the values were obtained:
[1] = Photosensitizing ability of the compound in EtOH assessed as singlet oxygen quantum yield at 100 nM under 520nm 30 mW/cm2 light irradiation by DPBF reagent based analysis; format: functional
[2] = Photosensitizing ability of the compound in NaOH assessed as fluorescence quantum yield; format: functional
[3] = Drug localization in endoplasmic reticulum of mouse 4T1 cells assessed as increase in green fluorescence at 2 uM incubated for 12 hrs by confocal scanning microscopy analysis; format: ADME, subcellular; details: 4t1, 12 h
[4] = Drug localization in Lipid droplet of mouse 4T1 cells assessed as increase in green fluorescence at 2 uM incubated for 12 hrs by confocal scanning microscopy analysis; format: ADME, subcellular; details: 4t1, 12 h
[5] = Drug localization in Lipid droplet of mouse 4T1 cells assessed as increase in green fluorescence by measuring pearson correlation coefficient at 2 uM incubated for 12 hrs by confocal scanning microscopy analysis; format: ADME, subcellular; details: 4t1, 12 h
[6] = Drug localization in Lysosome of mouse 4T1 cells assessed as increase in green fluorescence by measuring pearson correlation coefficient at 2 uM incubated for 12 hrs by confocal scanning microscopy analysis; format: ADME, subcellular; details: 4t1, 12 h
[7] = Drug localization in mitochondria of mouse 4T1 cells assessed as increase in green fluorescence by measuring pearson correlation coefficient at 2 uM incubated for 12 hrs by confocal scanning microscopy analysis; format: ADME; details: 4t1, 12 h
4T1 [8] = experiment: (§1) Induction of intracellular ROS generation in mouse 4T1 cells assessed as increase in green fluorescence intensity at 5 to 60 nM incubated in dark for 24 hrs followed by compound removal and measured after 5 mins under 20 mW/cm2H2 white light irradiation by H2-DCFDA staining based fluorescence assay; format: functional, cell-based; details: dose 5-60 nM
4T1 [9] = experiment: as §1, with “irradiation in presence of NaN3” for “irradiation”; format: functional, cell-based; details: dose 5-60 nM
[10] = Phototoxicity in human MDA-MB-231 cells assessed as cell viability preincubated for 24 hrs followed by white light irradiation at 20 mW/cm2 for 10 mins and measured after 24 hrs by MTT assay; format: functional, cell-based; details: MDA-MB-231, light or radiation study
[11] = Phototoxicity in mouse 4T1 cells assessed as cell viability preincubated for 24 hrs followed by white light irradiation at 20 mW/cm2 for 10 mins and measured after 24 hrs by MTT assay; format: functional, cell-based; details: 4T1, light or radiation study
[12] = Phototoxicity in human MCF7 cells assessed as cell viability preincubated for 24 hrs followed by white light irradiation at 20 mW/cm2 for 10 mins and measured after 24 hrs by MTT assay; format: functional, cell-based; details: MCF7, light or radiation study
[13] = Phototoxicity in human Bcap37 cells assessed as cell viability preincubated for 24 hrs followed by white light irradiation at 20 mW/cm2 for 10 mins and measured after 24 hrs by MTT assay; format: functional, cell-based; details: Bcap37, light or radiation study
[14] = Darktoxicity in human MDA-MB-231 cells assessed as cell viability preincubated for 24 hrs followed by incubation under dark condition for 24 hrs by MTT assay; format: toxicity, cell-based; details: time 48 hrs
[15] = Darktoxicity in mouse 4T1 cells assessed as cell viability preincubated for 24 hrs followed by incubation under dark condition for 24 hrs by MTT assay; format: toxicity, cell-based; details: time 48 hrs
[16] = Darktoxicity in human MCF7 cells assessed as cell viability preincubated for 24 hrs followed by incubation under dark condition for 24 hrs by MTT assay; format: toxicity, cell-based; details: time 48 hrs
[17] = Darktoxicity in human Bcap37 cells assessed as cell viability preincubated for 24 hrs followed by incubation under dark condition for 24 hrs by MTT assay; format: toxicity, cell-based; details: time 48 hrs
[18] = (§2) Photo selectivity index, ratio of CC50 for darktoxicity in human MDA-MB-231 cells assessed as cell viability preincubated for 24 hrs followed by incubation under dark condition for 24 hrs by MTT assay to IC50 for phototoxicity in human MDA-MB-231 cells assessed as cell viability preincubated for 24 hrs followed by white light irradiation at 20 mW/cm2 for 10 mins and measured after 24 hrs by MTT assay; format: toxicity, cell-based; details: read-out: Ratio CC50/IC50
[19] = as §2, with “mouse 4T1” for “human MDA-MB-231”; format: toxicity, cell-based; details: read-out: Ratio CC50/IC50
[20] = as §2, with “MCF7” for “MDA-MB-231”; format: toxicity, cell-based; details: read-out: Ratio CC50/IC50
[21] = as §2, with “Bcap37” for “MDA-MB-231”; format: toxicity, cell-based; details: read-out: Ratio CC50/IC50
[22] = Potency index, ratio of IC50 for Chlorin e6 to IC50 for test compound for phototoxicity in human MDA-MB-231 cells assessed as cell viability preincubated for 24 hrs followed by white light irradiation at 20 mW/cm2 for 10 mins and measured after 24 hrs by MTT assay; format: functional; details: time 48 hrs
4T1 [23] = experiment: Antitumor activity against mouse 4T1 cells implanted in mouse model assessed as reduction in tumor growth at 3 mg/kg, IG measured every two days for 15 days by digital caliper method; format: functional, organism-based; details: time 15.0 day
4T1 [24] = experiment: Induction of ferroptosis in mouse 4T1 cells assessed as cell viability at 20 nM preincubated for 24 hrs followed by white light irradiation at 20 mW/cm2 and measured after 24 hrs in presence of Z-VAD-FMK by MTT assay; format: functional, cell-based; details: time 48.0 hrs
4T1 [25] = experiment: Induction of ferroptosis in mouse 4T1 cells assessed as cell viability at 20 nM preincubated for 24 hrs followed by white light irradiation at 20 mW/cm2 and measured after 24 hrs in presence of Nec-1 by MTT assay; format: functional, cell-based; details: time 48.0 hrs
4T1 [26] = experiment: Induction of ferroptosis in mouse 4T1 cells assessed as cell viability at 20 nM preincubated for 24 hrs followed by white light irradiation at 20 mW/cm2 and measured after 24 hrs in presence of 3-MA by MTT assay; format: functional, cell-based; details: time 48.0 hrs
4T1 [27] = experiment: Induction of ferroptosis in mouse 4T1 cells assessed as cell viability at 20 nM preincubated for 24 hrs followed by white light irradiation at 20 mW/cm2 and measured after 24 hrs in presence of Fer-1 by MTT assay; format: functional, cell-based; details: time 48.0 hrs
4T1 [28] = experiment: Induction of ferroptosis in mouse 4T1 cells assessed as decrease in intracellular GSH level at 10 nM preincubated in dark condition for 24 hrs followed by 20mW/cm2 white light irradiation for 10 mins and measured after 12 hrs by colorimetric assay; format: functional, cell-based; details: time 2170.0 min
4T1 [29] = experiment: Induction of ferroptosis in mouse 4T1 cells assessed as increase in MDA level at 10 nM preincubated in dark condition for 24 hrs followed by 20mW/cm2 white light irradiation for 10 mins and measured after 6 hrs by colorimetric assay; format: functional, cell-based; details: time 1810.0 min
4T1 [30] = experiment: Antitumor activity against mouse 4T1 cells implanted in mouse model assessed as tumor growth inhibition at 3 mg/kg, IG measured every two days for 15 days under 80 mW/cm2 for 15 mins by digital caliper method relative to control; format: functional; details: 4T1, po, 360 h, time 15 day, read-out: TGI
[31] = Toxicity in mouse assessed as effect on liver in at 3 mg/kg, IG measured after 15 days by H and E staining based analysis; format: organism-based; details: in vivo, po, 360 h, time 15 day
4T1 [32] = experiment: Antitumor activity against mouse 4T1 cells implanted in mouse model assessed as reduction in tumor weight at 3 mg/kg, IG measured every two days for 15 days under 80 mW/cm2 for 15 mins by digital caliper method; format: functional, organism-based; details: time 15.0 day
4T1 [33] = experiment: Antitumor activity against mouse 4T1 cells implanted in mouse model assessed as reduction in metastatic tumor at 3 mg/kg, IG measured every two days for 15 days by digital caliper method; format: functional, organism-based; details: time 15.0 day
[34] = Toxicity in mouse assessed as effect on heart in at 3 mg/kg, IG measured after 15 days by H and E staining based analysis; format: organism-based; details: in vivo, po, 360 h, time 15 day
[35] = Toxicity in mouse assessed as effect on spleen in at 3 mg/kg, IG measured after 15 days by H and E staining based analysis; format: organism-based; details: in vivo, po, 360 h, time 15 day
[36] = Toxicity in mouse assessed as effect on lung in at 3 mg/kg, IG measured after 15 days by H and E staining based analysis; format: organism-based; details: in vivo, po, 360 h, time 15 day
[37] = Toxicity in mouse assessed as effect on kidney in at 3 mg/kg, IG measured after 15 days by H and E staining based analysis; format: organism-based; details: in vivo, po, 360 h, time 15 day
4T1 [38] = experiment: Antitumor activity against mouse 4T1 cells implanted in mouse model assessed as reduction in tumor cells at 3 mg/kg, IG measured every two days for 15 days under 80 mW/cm2 for 15 mins by digital caliper method; format: functional, organism-based; details: time 15.0 day
4T1 [39] = experiment: Antitumor activity against mouse 4T1 cells implanted in mouse model assessed as infiltration of immune cells at 3 mg/kg, IG measured every two days for 15 days under 80 mW/cm2 for 15 mins by digital caliper method; format: functional, organism-based; details: time 15.0 day

In the case of `COC(=O)c1cc2c3ccccc3n(C)c2c(C2=C3C(C)=C(I)C(C)=[N+]3[B-](F)(F)n3c(C)c(I)c(C)c32)n1`, the Activity [1] is reported as 0.78, the Activity [2] is reported as 0.22 and the Drug uptake [3] is reported as “Active”. For the same molecule, the Drug uptake [4] was “Active”, the Activity [5] was 0.93 and the Activity [6] was 0.53. For the same molecule, the Activity [7] was 0.49, the Activity (4T1 [8]) was “Active” and the Activity (4T1 [9]) was “inactive”. For the same molecule, the IC50 [10] was 10 nM, the IC50 [11] was 19 nM and the IC50 [12] was 13 nM. For the same molecule, the IC50 [13] was 11 nM, the CC50 at 24 h [14] was greater than 100000 nM and the CC50 at 24 h [15] was greater than 100000 nM. It also gave a CC50 at 24 h [16] greater than 100000 nM, a CC50 at 24 h [17] greater than 100000 nM and a selectivity ratio [18] greater than 9960. The selectivity ratio [19] was greater than 5290, the selectivity ratio [20] was greater than 7750 and the selectivity ratio [21] was greater than 8830. The “Ratio IC50” value [22] was 38, the Activity (4T1 [23]) was “inactive” and the Activity (4T1 [24]) was “inactive”. The Activity (4T1 [25]) was “inactive”, the Activity (4T1 [26]) was “inactive” and the Activity (4T1 [27]) was “Active”. For the same molecule, the Activity (4T1 [28]) was “Active”, the Activity (4T1 [29]) was “Active” and the inhibition in vivo at 3 mg/kg (4T1 [30]) was 67.6%. The Activity [31] was “Non-toxic”, the Activity (4T1 [32]) was “Active” and the Activity (4T1 [33]) was “Active”. The Activity [34] was “Non-toxic”, the Activity [35] was “Non-toxic” and the Activity [36] was “Non-toxic”. The Activity [37] was “Non-toxic”, the Activity (4T1 [38]) was “Active” and the Activity (4T1 [39]) was “Active”.
